# Target: T1, Endothiapepsin (Cryphonectria parasitica, UniProt P11838)
# T1 sequence (P11838 whole entry): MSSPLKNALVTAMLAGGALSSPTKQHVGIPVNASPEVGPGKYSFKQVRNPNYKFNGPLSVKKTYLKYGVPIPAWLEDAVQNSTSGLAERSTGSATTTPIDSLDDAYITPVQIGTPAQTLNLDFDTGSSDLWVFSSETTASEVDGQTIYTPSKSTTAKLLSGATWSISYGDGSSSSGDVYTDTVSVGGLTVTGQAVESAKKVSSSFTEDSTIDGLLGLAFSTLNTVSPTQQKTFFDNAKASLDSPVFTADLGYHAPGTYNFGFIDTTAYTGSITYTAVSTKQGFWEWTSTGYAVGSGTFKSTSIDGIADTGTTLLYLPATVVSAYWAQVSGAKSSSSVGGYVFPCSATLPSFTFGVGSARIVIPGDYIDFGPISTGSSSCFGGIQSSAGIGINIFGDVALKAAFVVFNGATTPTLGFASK
# Test: Inhibition of Cryphonectria parasitica endothiapepsin using 2-aminobenzoyl-Thr-Ile-Nle-Phe(p-NO2)-Gln-Arg-NH2 as substrate assessed as hydrolysis of substrate into 2-aminobenzoyl-Thr-Ile-Nle and Phe(p-NO2)-GLn-Arg-NH2 by fluorescence-based spectrophotometric analysis
row,IC50 [µM],Compound
1,210,N[C@H](C(=O)N/N=C/c1ccccc1)c1ccc(C(F)(F)F)cc1 (mixture of isomers)
2,85,N[C@H](C(=O)N/N=C/C1CCCC1)c1ccc(C(F)(F)F)cc1 (mixture of isomers)
